The results in this text go back to ChEMBL document CHEMBL1156159, “Synthesis, cytotoxic activity and structure-activity relationships of hedychenone analogues” (Bioorg Med Chem Lett, 2010).

Molecules are shown by their SMILES. In brackets after ≈: the same amount, converted by molar mass. Where only a bound is given, the exact number is not on record here.

Test [1] concerns A-375. Nature of the test: Cytotoxicity against human A375 cells after 24 hrs. It is filed as functional, cell-based.
The test system of test [2] is CHO. The experiment in a line: Cytotoxicity against CHO cells after 24 hrs. It is filed as cell-based, Cricetulus griseus.
In test [3] the test system is MCF7. The experiment in a line: Cytotoxicity against human MCF7 cells after 24 hrs. It is filed as functional, cell-based.
Test [4] relates to HL-60. The experiment in a line: Cytotoxicity against human HL60 cells after 24 hrs. In kind it is functional, cell-based.
For test [5], the system named is A549. The experiment in a line: Cytotoxicity against human A549 cells after 24 hrs. In kind it is functional, cell-based.
Where [6] appears, read: Homo sapiens, A-375, 24 h, read-out: IC50.
Setting [7] is: Cricetulus griseus, CHO, 24 h, read-out: IC50.
Where [8] appears, read: Homo sapiens, MCF7, 24 h, read-out: IC50.
Setting [9] is: Homo sapiens, HL-60, 24 h, read-out: IC50.
Where [10] appears, read: Homo sapiens, A549, 24 h, read-out: IC50.

As for `CC1=CC(=O)[C@H]2C(C)(C)CCC[C@]2(C)[C@H]1/C=C/C1=C[C@@H]2O[C@@H]1[C@H]1C(=O)OC(=O)[C@H]12`, the half-inhibitory concentration (IC50) (as a rule, the concentration at which inhibition is half-maximal) is 30.4 µg/mL (≈ 76.7 µM) in test [1] (setting [6]), 12.1 µg/mL (≈ 30.6 µM) in test [2] (setting [7]), 24.1 µg/mL (≈ 60.8 µM) in test [3] (setting [8]) and 28.1 µg/mL (≈ 70.9 µM) in test [4] (setting [9]).
Turning to `CC1=CC(=O)[C@H]2C(C)(C)CCC[C@]2(C)[C@H]1/C=C/C1=C[C@H]2O[C@H]1[C@@H]1C(=O)C=CC(=O)[C@@H]12`, the 50% inhibitory concentration (IC50) worked out at 20.1 µg/mL (≈ 49.5 µM) in test [1] (setting [6]), 8.28 µg/mL (≈ 20.4 µM) in test [2] (setting [7]), 15.4 µg/mL (≈ 37.9 µM) in test [3] (setting [8]) and 14.7 µg/mL (≈ 36.2 µM) in test [4] (setting [9]).
Consider `CC1=CC(=O)[C@H]2C(C)(C)CCC[C@]2(C)[C@H]1/C=C/C1=C[C@H]2O[C@H]1[C@@H]1C(=O)OC(=O)[C@@H]12`, for which the IC50 in test [1] (setting [6]) was determined as 20.4 µg/mL (≈ 51.4 µM); in test [2] (setting [7]) it was 10.4 µg/mL (≈ 26.3 µM); in test [3] (setting [8]) it was 18.6 µg/mL (≈ 46.9 µM); in test [5] (setting [10]), 39.9 µg/mL (≈ 101 µM); in test [4] (setting [9]) it was 17 µg/mL (≈ 42.9 µM).
For `CC1=CC(=O)[C@H]2C(C)(C)CCC[C@]2(C)[C@H]1/C=C/C1=CC2OC1C1OCCC21` (stereo partly drawn), the values for the concentration for half-maximal inhibition (IC50) in test [3] (setting [8]), in test [5] (setting [10]) and in test [4] (setting [9]) were 30.1 µg/mL (≈ 81.8 µM), 48.4 µg/mL (≈ 131 µM) and 38.4 µg/mL (≈ 104 µM), respectively.
On to `CC1=CC(=O)[C@H]2C(C)(C)CCC[C@]2(C)[C@H]1/C=C/C1=CC2OC1C1CCOC21` (stereo partly drawn), for which the figures for the half-maximal inhibitory concentration (IC50) in test [1] (setting [6]), in test [3] (setting [8]) and in test [4] (setting [9]) were 43.1 µg/mL (≈ 117 µM), 33.9 µg/mL (≈ 91.9 µM) and 38 µg/mL (≈ 103 µM), respectively.
Turning to `CC1=CC(=O)[C@H]2C(C)(C)CCC[C@]2(C)[C@H]1[C@@H]1O[C@@H]1c1ccoc1`, the half-maximal inhibitory concentration (IC50) was 26.1 µg/mL (≈ 83.1 µM) in test [1] (setting [6]); 9.61 µg/mL (≈ 30.6 µM) in test [2] (setting [7]); 20.1 µg/mL (≈ 63.9 µM) in test [3] (setting [8]); 31.1 µg/mL (≈ 99.1 µM) in test [5] (setting [10]); 19.4 µg/mL (≈ 61.8 µM) in test [4] (setting [9]).
On to `CC1CC(=O)[C@H]2C(C)(C)CCC[C@]2(C)[C@H]1CCc1ccoc1` (stereo partly drawn), for which the IC50 in test [1] (setting [6]), in test [3] (setting [8]) and in test [4] (setting [9]) was above 100 µg/mL each time.
For the compound `CC1(C)CCC[C@@]2(C)[C@H]1C(=O)CC(C)(C1(C)CC(=O)[C@H]3C(C)(C)CCC[C@]3(C)C1/C=C/c1ccoc1)[C@@H]2/C=C/c1ccoc1` (stereo partly drawn), the half-maximal inhibitory concentration (IC50) in test [1] (setting [6]) was determined as 16.8 µg/mL (≈ 28.1 µM); in test [2] (setting [7]) it was 6.91 µg/mL (≈ 11.5 µM); in test [3] (setting [8]), 11.2 µg/mL (≈ 18.7 µM); in test [5] (setting [10]) it was 23 µg/mL (≈ 38.4 µM); in test [4] (setting [9]) it was 13.9 µg/mL (≈ 23.1 µM).
On to `CC1=CC(=O)[C@H]2C(C)(C)CCC[C@]2(C)[C@H]1C=O`, for which the IC50 was 35.1 µg/mL (≈ 150 µM) in test [1] (setting [6]), 34.9 µg/mL (≈ 149 µM) in test [2] (setting [7]), 38.1 µg/mL (≈ 163 µM) in test [3] (setting [8]) and 39.7 µg/mL (≈ 169 µM) in test [4] (setting [9]).
Take `CC1=CC(=O)[C@H]2C(C)(C)CCC[C@]2(C)[C@H]1CCc1ccoc1`: the IC50 in test [1] (setting [6]) was 60 µg/mL (≈ 200 µM); in test [3] (setting [8]), above 100 µg/mL; in test [4] (setting [9]), 87 µg/mL (≈ 290 µM).
On to `CC1=CC(=O)[C@H]2C(C)(C)CCC[C@]2(C)[C@H]1/C=C/C1=C[C@H]2O[C@H]1[C@H]1C(=O)C=CC(=O)[C@H]12`, for which the 50% inhibitory concentration (IC50) turned out to be 19 µg/mL (≈ 46.8 µM) in test [1] (setting [6]); 8.19 µg/mL (≈ 20.1 µM) in test [2] (setting [7]); 15.7 µg/mL (≈ 38.7 µM) in test [3] (setting [8]); 35.9 µg/mL (≈ 88.3 µM) in test [5] (setting [10]); 14.1 µg/mL (≈ 34.6 µM) in test [4] (setting [9]).
For the compound `CC1=CC(=O)[C@H]2C(C)(C)CCC[C@]2(C)[C@H]1/C=C/C1=C[C@H]2O[C@H]1[C@H]1C(=O)OC(=O)[C@H]12` (stereo in doubt; 3b), the IC50 turned out to be 20 µg/mL (≈ 50.5 µM) in test [1] (setting [6]); 9.11 µg/mL (≈ 23 µM) in test [2] (setting [7]); 17 µg/mL (≈ 42.9 µM) in test [3] (setting [8]); 36.4 µg/mL (≈ 91.9 µM) in test [5] (setting [10]); 16.9 µg/mL (≈ 42.7 µM) in test [4] (setting [9]).
Consider `CC1=CC(=O)[C@H]2C(C)(C)CCC[C@]2(C)[C@H]1/C=C/C1=C[C@H]2O[C@H]1[C@H]1C(=O)OC(=O)[C@H]12` (stereo in doubt; 3c), for which the concentration for half-maximal inhibition (IC50) in test [1] (a-375) came out at 27.84 µg/mL (≈ 70.2 µM); in test [2] (cho), 11.08 µg/mL (≈ 27.9 µM); in test [3] (mcf7), 23.18 µg/mL (≈ 58.5 µM); in test [4] (hl-60), 21.73 µg/mL (≈ 54.8 µM).
Regarding `COC1CCC2C3C=C(/C=C/[C@H]4C(C)=CC(=O)[C@H]5C(C)(C)CCC[C@]45C)C(O3)C2O1` (stereo in doubt; 3g), the IC50 was 30.2 µg/mL (≈ 73.2 µM) in test [1] (setting [6]); 13.1 µg/mL (≈ 31.7 µM) in test [2] (setting [7]); 28.1 µg/mL (≈ 68.1 µM) in test [3] (setting [8]); 43.2 µg/mL (≈ 105 µM) in test [5] (setting [10]); 27.7 µg/mL (≈ 67.1 µM) in test [4] (setting [9]).
The corresponding values for `COC1CCC2C3OC(C=C3/C=C/[C@H]3C(C)=CC(=O)[C@H]4C(C)(C)CCC[C@]34C)C2O1` (stereo in doubt; 3h) are 32.1 µg/mL (≈ 77.9 µM), 14.1 µg/mL (≈ 34.3 µM), 28 µg/mL (≈ 67.8 µM), 43 µg/mL (≈ 104 µM) and 27.1 µg/mL (≈ 65.8 µM).
In the case of `COC1CCC2C3C=C(/C=C/[C@H]4C(C)=CC(=O)[C@H]5C(C)(C)CCC[C@]45C)C(O3)C2O1` (stereo in doubt; 3i), the 50% inhibitory concentration (IC50) in test [1] (a-375) was 31.12 µg/mL (≈ 75.4 µM); in test [2] (cho), 13.91 µg/mL (≈ 33.7 µM); in test [3] (mcf7), 29.3 µg/mL (≈ 71 µM); in test [5] (a549) it was 47.71 µg/mL (≈ 116 µM); in test [4] (hl-60) it was 28.41 µg/mL (≈ 68.9 µM).
In test [2] (cho), `COC1CCC2C3OC(C=C3/C=C/[C@H]3C(C)=CC(=O)[C@H]4C(C)(C)CCC[C@]34C)C2O1` (stereo in doubt; 3j) yielded an IC50 of 14.03 µg/mL (≈ 34 µM).
In the case of `CC1=CC(=O)[C@H]2C(C)(C)CCC[C@]2(C)[C@H]1/C=C/C1=CC2OC1C1C(=O)c3ccccc3C(=O)C21` (stereo in doubt; 3k), the IC50 came out at 18.7 µg/mL (≈ 41 µM) in test [1] (setting [6]), 7.94 µg/mL (≈ 17.4 µM) in test [2] (setting [7]), 15 µg/mL (≈ 32.8 µM) in test [3] (setting [8]) and 13.7 µg/mL (≈ 30 µM) in test [4] (setting [9]).
With `CC1=CC(=O)[C@H]2C(C)(C)CCC[C@]2(C)[C@H]1/C=C/C1=CC2OC1C1C(=O)c3ccccc3C(=O)C21` (stereo in doubt; 3l), the IC50 is 18.64 µg/mL (≈ 40.8 µM) in test [1] (a-375); 7.91 µg/mL (≈ 17.3 µM) in test [2] (cho); 14.72 µg/mL (≈ 32.2 µM) in test [3] (mcf7); 34.5 µg/mL (≈ 75.5 µM) in test [5] (setting [10]); 13.88 µg/mL (≈ 30.4 µM) in test [4] (hl-60).
`CC1=CC(=O)[C@H]2C(C)(C)CCC[C@]2(C)[C@H]1/C=C/C1=CC2OC1C1CNCC21` (stereo in doubt; 3o): the IC50 in test [2] (setting [7]) amounted to 19.2 µg/mL (≈ 52.2 µM); in test [3] (setting [8]), 36.7 µg/mL (≈ 99.9 µM); in test [4] (setting [9]), 39.9 µg/mL (≈ 108 µM).
As for `CC1=CC(=O)[C@H]2C(C)(C)CCC[C@]2(C)[C@H]1/C=C/C1=CC2OC1C1CNCC21` (stereo in doubt; 3p), the concentration for half-maximal inhibition (IC50) in test [3] (mcf7) was 31.98 µg/mL (≈ 87 µM); in test [4] (hl-60) it was 43.18 µg/mL (≈ 117 µM).
Take `CC1=CC(=O)[C@H]2C(C)(C)CCC[C@]2(C)[C@H]1/C=C/c1ccoc1` [HEDYCHENONE]: the half-maximal inhibitory concentration (IC50) was determined as 21.1 µg/mL (≈ 70.8 µM) in test [1] (setting [6]); 8.2 µg/mL (≈ 27.5 µM) in test [2] (setting [7]); 19.4 µg/mL (≈ 65 µM) in test [3] (setting [8]); 33.1 µg/mL (≈ 111 µM) in test [5] (setting [10]); 17.7 µg/mL (≈ 59.2 µM) in test [4] (setting [9]).
For the compound `CC1(C)CCC[C@]2(C)[C@@H](/C=C/c3ccoc3)C(CO)=CC(=O)[C@@H]12` [YUNNACORONARIN D], the 50% inhibitory concentration (IC50) in test [1] (setting [6]) came out at 40 µg/mL (≈ 127 µM); in test [2] (setting [7]), 39 µg/mL (≈ 124 µM); in test [3] (setting [8]) it was 34.3 µg/mL (≈ 109 µM); in test [5] (setting [10]) it was 50.1 µg/mL (≈ 159 µM); in test [4] (setting [9]), 26.2 µg/mL (≈ 83.3 µM).
